Legend:
[1] = Tested for chemical stability of the compound; format: physicochemical
[2] = target: T1, Neutrophil elastase (Homo sapiens) (UniProt P08246)
T1 sequence (whole entry): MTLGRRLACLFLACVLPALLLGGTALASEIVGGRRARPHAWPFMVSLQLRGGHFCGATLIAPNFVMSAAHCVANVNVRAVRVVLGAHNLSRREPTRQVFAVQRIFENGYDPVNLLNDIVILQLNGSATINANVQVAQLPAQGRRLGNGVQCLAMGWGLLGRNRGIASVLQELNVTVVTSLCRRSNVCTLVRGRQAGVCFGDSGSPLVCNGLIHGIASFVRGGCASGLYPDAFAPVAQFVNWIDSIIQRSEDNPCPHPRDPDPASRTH
Description: Inhibition of Elastase using Suc-Ala-Ala-Pro-Ala-pNA as substrate, activity expressed as Kobs/[I] (second order rate constant)

Neutrophil elastase = target: T2, Neutrophil elastase (Homo sapiens, UniProt P08246); test: Tested in vitro for its inhibitory effect against Elastase using Suc-Ala--Ala-Pro-Ala-pNA as substrate
T2 sequence (P08246 whole entry): T1 sequence (whole entry)

Cricetinae gen. sp. [3] = test: Tested in vivo for inhibition of hamster lung hemorrhage after intratracheal administration at 2 hr prior to challenge with HLE (human leukocyte elastase); format: functional, Cricetulus griseus
Cricetinae gen. sp. [4] = test: Tested in vivo for inhibition of hamster lung hemorrhage after intratracheal administration at 1 hr prior to challenge with HLE (human leukocyte elastase); format: functional, Cricetulus griseus
Cricetinae gen. sp. [5] = test: Tested in vivo for inhibition of hamster lung hemorrhage after intratracheal administration at 3h prior to challenge with HLE (human leukocyte elastase); format: functional, Cricetulus griseus
[6] = target: T1, Neutrophil elastase (Homo sapiens); test: Tested in vitro for its inhibitory effect against Human leukocyte elastase using Suc-Ala--Ala-Pro-Ala-pNA as substrate, activity expressed as Kobs/[I] (second order rate constant)
Cricetinae gen. sp. [7] = test: Tested in vivo for inhibition of hamster lung hemorrhage after intratracheal administration at 3h prior to challenge with HLE(human leukocyte elastase); format: functional, Cricetulus griseus

Compound: CN(Cc1ccc(C(=O)O)cc1)C(=O)[C@@H]1N2C(=O)[C@H](NC(=O)C(F)(F)F)[C@H]2[S+]([O-])C1(C)C (stereo partly drawn)
- half-life [1]: 8.2 h
- K obs / 1 [2]: 60 M⁻¹ s⁻¹

Compound: CC1(C)[C@H](C(=O)OCc2ccc(C(=O)O)cc2)N2C(=O)[C@H](NC(=O)C(F)(F)F)[C@H]2S1(=O)=O
- half-life [1]: 1.1 h
- K obs / 1 [2]: 89000 M⁻¹ s⁻¹

Compound: CCO[C@H]1C(=O)N2[C@@H](C(=O)OCc3ccc(C(=O)O)cc3)C(C)(C)S(=O)(=O)[C@H]12
- Ki (Neutrophil elastase): 1.3 µM

Compound: CO[C@H]1C(=O)N2C(C(=O)N(C)CC(=O)O)=C(COC(C)=O)CS(=O)(=O)[C@H]12
- Inhibition (Cricetinae gen. sp. [3]): 80%
- Inhibition (Cricetinae gen. sp. [4]): 97%
- Inhibition (Cricetinae gen. sp. [5]): 54%

Compound: CO[C@H]1C(=O)N2[C@@H](C(=O)OCc3ccc(C(=O)O)cc3)C(C)(C)S(=O)(=O)[C@H]12
- half-life [1]: < 1 h
- K obs / 1 [6]: 5600 M⁻¹ s⁻¹

Compound: CC1(C)[C@H](C(=O)N2CCC[C@@H]2C(=O)O)N2C(=O)[C@H](NC(=O)C(F)(F)F)[C@H]2S1(=O)=O
- K obs / 1 [2]: 26 M⁻¹ s⁻¹

Compound: CN(Cc1ccc(C(=O)O)cc1)C(=O)[C@@H]1N2C(=O)[C@H](NC(=O)C(F)(F)F)[C@H]2S(=O)(=O)C1(C)C
- half-life [1]: 4.2 h
- K obs / 1 [2]: 5400 M⁻¹ s⁻¹

Compound: CO[C@H]1C(=O)N2C(C(=O)N3CCC[C@H]3C(=O)O)=C(COC(C)=O)CS(=O)(=O)[C@H]12
- Inhibition (Cricetinae gen. sp. [3]): 97%
- Inhibition (Cricetinae gen. sp. [4]): 99%
- K obs / 1 [2]: 3800 M⁻¹ s⁻¹
- Inhibition (Cricetinae gen. sp. [7]): 78%

Compound: CN(Cc1ccc(C(=O)O)cc1)C(=O)[C@@H]1N2C(=O)[C@H](NC(=O)C(F)(F)F)[C@@H]2[S+]([O-])C1(C)C (stereo partly drawn)
- half-life [1]: 8.6 h
- K obs / 1 [2]: 1100 M⁻¹ s⁻¹

Compound: CN(CC(=O)O)C(=O)[C@@H]1N2C(=O)[C@H](NC(=O)C(F)(F)F)[C@H]2S(=O)(=O)C1(C)C
- half-life [1]: 4.8 h
- Ki (Neutrophil elastase): 14 µM

Compound: CC1(C)[C@H](C(=O)OCc2ccc(C(=O)O)cc2)N2C(=O)[C@H](NC(=O)C(F)(F)F)[C@@H]2[S+]1[O-] (stereo partly drawn)
- half-life [1]: 5.3 h
- K obs / 1 [2]: 4900 M⁻¹ s⁻¹

Compound: CC1(C)[C@H](C(=O)N2CCC[C@@H]2C(=O)O)N2C(=O)[C@@H](NC(=O)C(F)(F)F)[C@H]2S1(=O)=O
- Ki (Neutrophil elastase): 22 µM

Compound: CC1(C)[C@H](C(=O)OCc2ccc(C(=O)O)cc2)N2C(=O)[C@@H](NC(=O)C(F)(F)F)[C@H]2S1(=O)=O
- half-life [1]: 1.1 h
- K obs / 1 [2]: 7100 M⁻¹ s⁻¹

Compound: CN(Cc1ccc(C(=O)O)cc1)C(=O)[C@@H]1N2C(=O)[C@@H](NC(=O)C(F)(F)F)[C@H]2S(=O)(=O)C1(C)C
- half-life [1]: 4.5 h
- K obs / 1 [2]: 275 M⁻¹ s⁻¹

Compound: CO[C@H]1C(=O)N2[C@@H](C(=O)N(C)CC(=O)O)C(C)(C)S(=O)(=O)[C@H]12
- Ki (Neutrophil elastase): 53 µM

Compound: CC1(C)[C@H](C(=O)OCc2ccc(C(=O)O)cc2)N2C(=O)[C@H](NC(=O)C(F)(F)F)[C@H]2[S+]1[O-] (stereo partly drawn)
- half-life [1]: 1.4 h
- Ki (Neutrophil elastase): 1.5 µM

Compound: CN(C(=O)C(F)(F)F)[C@H]1C(=O)N2[C@@H](C(=O)OCc3ccc(C(=O)O)cc3)C(C)(C)S(=O)(=O)[C@H]12
- K obs / 1 [2]: 5700 M⁻¹ s⁻¹

Compound: CN(CC(=O)O)C(=O)[C@@H]1N2C(=O)[C@@H](NC(=O)C(F)(F)F)[C@H]2S(=O)(=O)C1(C)C
- Ki (Neutrophil elastase): 50 µM

Source: ChEMBL document CHEMBL1127140, “Inhibition of human leukocyte elastase. 7. Inhibition by 6-substituted penicillin amides” (Bioorg Med Chem Lett, 1993)
